Source: patent US20050271739A1, “Methods and compositions for accelerating alcohol metabolism” (priority 2004, published 2005)
Where “and” joins values, the source holds several entries; their conditions need not be identical. Identical values can stand only once.

What was measured:
alcohol dehydrogenase [1] = test: Effect of thyroxine analogues on alcohol dehydrogenase activity; type: biochemical; details: for Relative Increase (%): None = 100
[2] = test system: malate-aspartate shuttle in rabbit liver mitochondria; test: NADH oxidation by malate-aspartate shuttle in liver mitochondria; type: biochemical; details: for Effect on oxidation of NADH: added to rabbit liver mitochondria
alcohol dehydrogenase [3] = test: Effect of hormonal compounds on enzyme activity of alcohol dehydrogenase; type: biochemical; parameters: Relative activity (%): concentration or dose not given beside the values; details: for Relative activity (%): Control = 100.0
[4] = blood alcohol reading; cited from earlier work
[5] = test system: oxidation of ethanol and acetaldehyde; test: Absorbance change of pig liver extract without INT (340 nm) and with INT (500 nm); type: biochemical; details: animal glandular extract, in the presence of INT
Procedure: Phosphate buffer: 0.05 M (pH=7.5); INT: 12.7 mM; ethanol: 1.0% (V/V); aldehyde: 17.6 mM. No NAD was added.
As described in testing method f, in the presence of diaphorases, INT is reduced to forzaman, while NADH is oxidized to NAD in a 1:1 mole stoichiometric ratio. Therefore, the increase in the absorbance at 500 nm is directly proportional to the concentration of forzaman.
FIG. 3 and Table 4 show the change of absorbance at 500 nm versus time. […] Since NAD and NADH are high very difficult to purify, the costs of use of external high purity NAD has been proven to be prohibitively high. The present invention provides a cost-effective method for preparing the enzyme-coenzyme formulation.

aldehyde dehydrogenase = test: Thyroxine stimulation of aldehyde dehydrogenase activity; type: biochemical
From the text: Thyroxine has extremely high stimulating effect on the enzyme activity of alcohol dehydrogenases and aldehyde dehydrogenases. […] Some are as twice effective as thyroxine at the same concentration.

[6] = test system: Alcohol dehydrogenase (from Sigma Aldrich Chemical Company); test: Alcohol dehydrogenase activity vs. NAD concentration; type: biochemical; details: Tris Buffer pH 8.5, ethanol 3% (V/V), ADH 5 units, 340 nm
Procedure: Testing conditions: 0.05 M Tris Buffer (pH=8.5); ethanol=3% (V/V); Alcohol dehydrogenase (from Sigma Aldrich Chemical Company): 5 units. ADH activity was determined by measuring absorbance change at 340 nm.

[7] = test system: alcohol dehydrogenase prepared from yeast extract; test: NAD regeneration through coupling reactions with yeast extract ADH, INT and diaphorase; type: biochemical; details: 0.5 mM and 2.0 mM NAD, ethanol 1.0% (V/V), pH 7.5
Procedure: Phosphate buffer: 0.05 M (pH=7.5); ethanol: 1.0% (V/V). There was no absorbance change in the absence of NAD.
Phosphate buffer: 0.05 M (pH=7.5); INT: 12.7 mM; ethanol: 1.0% (V/V); NAD=2.0 mM; Diaphorase: 2 units.
In this example, the INT system was selected to illustrate the effectiveness of the regeneration of NAD by coupling compounds, since the reaction product, i.e., formazan, gives a maximum absorbance at 500 nm. Then the coupling reactions (see FIG. 6) can be directly quantified by spectrophotometric measurements.

blood alcohol = test: In vivo test of alcohol metabolism by dog (blood alcohol reading)
Procedure: Dog body weight: 13.9 kilograms. 42 grams of alcohol was administrated at time 0. ●—Control (i.e., no further treatment in the first 5 hours); ▪—10 grams pyruvate was administrated orally at 5 hours; ▴ 10 grams of alanine was administrated at 1.5 hour and then 5 hours.
In this example, the effectiveness of using compositions described above for accelerating alcohol metabolism was validated by in vivo tests with dogs. Six dogs (as described in Table 9) were used in the in vivo tests. The dogs were fasted 12 to 16 hours and then given 20% alcohol orally in a dose of 3 g/kg body weight. Approximately 1.5 hours were allowed for complete absorption and distribution of the alcohol. Blood samples were taken from the leg veins. The blood alcohol reading (BAR) was determined by measuring alcohol concentration in blood using the Sigma Aldrich alcohol assay method (Assay No. 333).

[8] = average of the dog tests, 5 or 10 g

Molecule	Absorbance Change (units/min @ 340 nm) (alcohol dehydrogenase [1]; Dosage 17 μM)	Relative Increase (%) (alcohol dehydrogenase [1]; Dosage 17 μM)	Relative activity (%) (alcohol dehydrogenase [3])	further results
NC(Cc1ccc(Oc2ccc(O)cc2)cc1)C(=O)O (racemic) [DL-thyronine]	0.535 units/min	535%	–	–
O=C([O-])CC(O)C(=O)[O-].[Na+].[Na+] (racemic) [malate, DL-Hydroxybutanedioic acid]	–	–	–	Effect on oxidation of NADH [2]: substantially increases the oxidation of NADH; Relative effectiveness in NADH oxidation ([2]; malate vs. aspartate): more effective than aspartate
O=C(O)CCc1cc(I)c(Oc2cc(I)c(O)c(I)c2)c(I)c1 [3,3,5,5′-tetraiodothyropropionic acid]	0.75 units/min	750%	–	–
O=C(O)Cc1cc(I)c(Oc2ccc(O)c(I)c2)c(I)c1 [3,3′5-triiodothyroacetic acid]	0.715 units/min	715%	–	–
O=C(O)CCc1cc(I)c(Oc2ccc(O)c(I)c2)c(I)c1 [3,3′5-triiodothyropropionic acid]	0.676 units/min	676%	–	–
O=C(O)CCc1ccc(Oc2cc(I)c(O)c(I)c2)c(I)c1 [3,3′5′-triiodothyropropionic acid]	0.865 units/min	865%	–	–
N[C@@H](Cc1cc(Br)c(Oc2ccc(O)c(I)c2)c(Br)c1)C(=O)O [3,5-dibromo-3′-iodo-thyronine]	0.48 units/min	480%	–	–
N[C@@H](Cc1cc(I)c(O)c(I)c1)C(=O)O [3,5-diiodo-l-thyrosine]	–	–	–	Absorbance Change (units/min @ 340 nm) (alcohol dehydrogenase [1]; Dosage 170 μM): 0.256 units/min; Relative Increase (%) (alcohol dehydrogenase [1]; Dosage 170 μM): 256%; Absorbance Change (units/min @ 340 nm) (alcohol dehydrogenase [1]; Dosage 340 μM): 0.36 units/min; Relative Increase (%) (alcohol dehydrogenase [1]; Dosage 340 μM): 360%
C[C@]12CCC(=O)C=C1CC[C@@H]1[C@@H]2CC[C@]2(C)C(=O)CC[C@@H]12 [4-Androsterone-3,17-dione]	–	–	128%	–
CCO [Alcohol, ethanol]	–	–	–	Anesthetic effects (BAR) [4]: (0.30-0.40%); Death; LD50 (BAR) [4]: (0.45-0.50%)
C[C@]12CC[C@@H](O)C[C@@H]1CC[C@@H]1[C@@H]2CC[C@]2(C)C(=O)CC[C@@H]12 [Androsterone]	–	–	119%	–
C[C@]12C[C@H](O)[C@H]3[C@@H](CCC4=CC(=O)CC[C@@]43C)[C@@H]1CC[C@@H]2C(=O)CO [Corticosterone]	–	–	112%	–
C[C@]12CCC(=O)C=C1CC[C@@H]1[C@@H]2C(=O)C[C@@]2(C)[C@H]1CC[C@]2(O)C(=O)CO [Cortisone]	–	–	116%	–
C[C@]12CC[C@H](O)CC1=CC[C@@H]1[C@@H]2CC[C@]2(C)C(=O)CC[C@@H]12 [Dehydroepi-androsterone]	–	–	200%	–
C[C@]12CC[C@H]3[C@@H](CCC4=CC(=O)CC[C@@]43C)[C@@H]1CC[C@@H]2C(=O)CO [Deoxycorticosterone]	–	–	115%	–
CC/C(=C(/CC)c1ccc(O)cc1)c1ccc(O)cc1 [Diethylstilbestrol]	–	–	–	Increase of alcohol dehydrogenase activity (alcohol dehydrogenase [3]; as low as 10 μM): more than 100%
O=[N+]([O-])c1ccc(-n2nc(-c3ccccc3)n[n+]2-c2ccc(I)cc2)cc1.[Cl-] [INT]	–	–	–	Effect of INT on oxidation of ethanol and acetaldehyde [5]: enhanced substantially
N[C@@H](Cc1cc(I)c(Oc2cc(I)c(O)c(I)c2)c(I)c1)C(=O)O [L-thyroxine, L-Thyroxine]	0.30 units/min	300%	–	Increase of enzyme activity (aldehyde dehydrogenase; as little as 2 μM): > 100%; Effect on alcohol and aldehyde dehydrogenases at high dosages (aldehyde dehydrogenase; high dosages): becomes an inhibitor of the enzymes
NC(=O)c1ccc[n+]([C@@H]2O[C@H](COP(=O)([O-])OP(=O)(O)OC[C@H]3O[C@@H](n4cnc5c(N)ncnc54)[C@H](O)[C@@H]3O)[C@@H](O)[C@H]2O)c1 [NAD, Nicotinamide Adenine Dinucleotide (NAD)]	–	–	–	Alcohol oxidation by alcohol dehydrogenase vs. NAD concentration [6]: increases with increasing NAD concentration; Absorbance on addition of NAD [7]: increases the absorbance
CC(=O)[C@H]1CC[C@H]2[C@@H]3CCC4=CC(=O)CC[C@]4(C)[C@H]3CC[C@]12C [Progesterone]	–	–	120%	–
CC12CCC(=O)C=C1CCC1C2CCC2(C)C(O)CCC12 (centres unmarked) [Testerone]	–	–	137%	–
CC(=O)C(=O)[O-].[Na+] [sodium pyruvate, Pyruvic acid sodium salt]	–	–	–	BAR Reduction Rate after first dose, Average (blood alcohol; [8]): 211.4 ppm/hr; BAR Reduction Rate after second dose, Average (blood alcohol; [8]): 197.9 ppm/hr; BAR Reduction Rate after first dose (blood alcohol; dog, oral, 5 g, first dosing at 266-410 min after ethanol 3 g/kg, sodium salt): 212 ppm/hr and 160 ppm/hr and 253 ppm/hr and 252 ppm/hr; BAR Reduction Rate after second dose (blood alcohol; dog, oral, 10 g, second dosing at 310-464 min, sodium salt): 256 ppm/hr and 230 ppm/hr
SodiumL-aspartate	–	–	–	Effect on oxidation of NADH [2]: substantially increases the oxidation of NADH
